Experimental data from publication PMC9721025, “Pharmacokinetic study of the main components of Tanreqing capsules and Tanreqing injections in beagles by liquid chromatography–tandem mass spectrometry” (Chinese Medicine, 2022).
Read-outs that look alike come from different tables or passages of the source.

Experiments:
[1] = Stability of analytes in dog plasma (QC samples); assay type: in vitro ADME
Outline: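 QC samples in dog plasma at three concentration levels, three replicates each, tested for short-term (6 h room temperature), long-term (−80 °C, 30 days) and freeze–thaw (three cycles, −80 °C to room temperature) stability. Working solutions prepared in methanol/water 10:90.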

[2] = Pharmacokinetics in beagles, multiple-dose regimen (once per day for 7 days) of TRQI or TRQC, plasma LC-MS/MS; assay type: in vivo; settings: beagle, dog
Outline: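 Six beagles dosed once daily for 7 days with TRQI (0.5 mL/kg injection) or TRQC (0.09 g/kg), crossover after washout. Plasma sampled 0–24 h after seventh dose, methanol/acetonitrile-precipitated, measured by LC–MS/MS. Steady-state parameters by non-compartmental analysis.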

[3] = Tanreqing injection, cited from earlier work
[4] = Pharmacokinetics in beagles, single-dose regimen of TRQI (i.v.) or TRQC (oral), plasma LC-MS/MS; assay type: in vivo, beagle; settings: for AUC(0-t) / Cmax / Tmax / half-life: beagle, dog, plasma; for AUC(0-t): read-out: AUC0–24 h; for Cmax / Tmax / half-life: mean of six beagles
Outline: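 Crossover study in six beagles (9.0–12.0 kg) with a 7-day washout: TRQI 0.5 mL/kg i.v. or TRQC 0.09 g/kg orally, single dose. Plasma was sampled at 14 points to 24 h, protein-precipitated, analysed by LC–MS/MS, with parameters from non-compartmental analysis.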

[5] = n = 3, high QC: nominal 200 ng/mL baicalin, 1000 ursodeoxycholic acid, 100 chenodeoxycholic acid and chlorogenic acid
[6] = n = 3, low QC: nominal 4 ng/mL baicalin, 20 ursodeoxycholic acid, 2 chenodeoxycholic acid and chlorogenic acid
[7] = n = 3, middle QC: nominal 20 ng/mL baicalin, 100 ursodeoxycholic acid, 10 chenodeoxycholic acid and chlorogenic acid
[8] = both sexes, iv, TRQI 0.5 mL/kg once per day for 7 days, mean
[9] = both sexes, po, TRQC 0.09 g/kg once per day for 7 days, mean
[10] = both sexes, iv, single i.v. dose of TRQI 0.5 mL/kg
[11] = both sexes, single oral dose of TRQC 0.09 g/kg

- Freeze-thaw stability (3 cycles) Mean ± S.D. concentration [1, 5]: 1048.41 ± 75.10 ng/mL
- Long-term stability (30 days at – 80 °C) Mean ± S.D. concentration [1, 5]: 1081.75 ± 20.70 ng/mL
- Short-term stability (6 h at room temperature) Mean ± S.D concentration [1, 5]: 1104.46 ± 16.75 ng/mL
- Freeze-thaw stability (3 cycles) Mean ± S.D. concentration [1, 6]: 18.47 ± 1.66 ng/mL
- Long-term stability (30 days at – 80 °C) Mean ± S.D. concentration [1, 6]: 18.77 ± 0.41 ng/mL
- Short-term stability (6 h at room temperature) Mean ± S.D concentration [1, 6]: 19.38 ± 0.97 ng/mL
- Freeze-thaw stability (3 cycles) Mean ± S.D. concentration [1, 7]: 87.08 ± 1.95 ng/mL
- Long-term stability (30 days at – 80 °C) Mean ± S.D. concentration [1, 7]: 90.80 ± 1.57 ng/mL
- Short-term stability (6 h at room temperature) Mean ± S.D concentration [1, 7]: 97.83 ± 0.62 ng/mL
- AUC(0-inf) ([2]; both sexes, iv, 0.5 mL/kg, TRQI 0.5 mL/kg for 7 days, Mean): 19100 ng·h/mL
- AUC(0-t) ([2]; both sexes, iv, 0.5 mL/kg, TRQI 0.5 mL/kg for 7 days, Mean, read-out: AUC0–24 h): 16400 ng·h/mL
- Cmax at 7 days [2, 8]: 5060 ng/mL
- half-life at 7 days [2, 8]: 6.84 h
- AUC(0-inf) ([2]; both sexes, po, 0.09 g/kg, TRQC 0.09 g/kg for 7 days, Mean): 35300 ng·h/mL
- AUC(0-t) ([2]; both sexes, po, 0.09 g/kg, TRQC 0.09 g/kg for 7 days, Mean, read-out: AUC0–24 h): 28500 ng·h/mL
- Cmax at 7 days [2, 9]: 3400 ng/mL
- Tmax at 7 days [2, 9]: 5.69 h
- half-life at 7 days [2, 9]: 12 h
- AUC(0-inf) ([2]; female, iv, 0.5 mL/kg, TRQI 0.5 mL/kg for 7 days, beagle No. 4): 14900 ng·h/mL
- AUC(0-t) ([2]; female, iv, 0.5 mL/kg, TRQI 0.5 mL/kg for 7 days, beagle No. 4, read-out: AUC0–24 h): 4740 ng·h/mL
- AUC(0-inf) ([2]; female, iv, 0.5 mL/kg, TRQI 0.5 mL/kg for 7 days, beagle No. 5): 4220 ng·h/mL
- AUC(0-t) ([2]; female, iv, 0.5 mL/kg, TRQI 0.5 mL/kg for 7 days, beagle No. 5, read-out: AUC0–24 h): 2560 ng·h/mL
- AUC(0-inf) ([2]; female, iv, 0.5 mL/kg, TRQI 0.5 mL/kg for 7 days, beagle No. 6): 2810 ng·h/mL
- AUC(0-t) ([2]; female, iv, 0.5 mL/kg, TRQI 0.5 mL/kg for 7 days, beagle No. 6, read-out: AUC0–24 h): 2670 ng·h/mL
- AUC(0-inf) ([2]; female, po, 0.09 g/kg, TRQC 0.09 g/kg for 7 days, beagle No. 4): 112000 ng·h/mL
- AUC(0-t) ([2]; female, po, 0.09 g/kg, TRQC 0.09 g/kg for 7 days, beagle No. 4, read-out: AUC0–24 h): 109000 ng·h/mL
- AUC(0-inf) ([2]; female, po, 0.09 g/kg, TRQC 0.09 g/kg for 7 days, beagle No. 5): 20100 ng·h/mL
- AUC(0-t) ([2]; female, po, 0.09 g/kg, TRQC 0.09 g/kg for 7 days, beagle No. 5, read-out: AUC0–24 h): 10500 ng·h/mL
- AUC(0-inf) ([2]; female, po, 0.09 g/kg, TRQC 0.09 g/kg for 7 days, beagle No. 6): 45000 ng·h/mL
- AUC(0-t) ([2]; female, po, 0.09 g/kg, TRQC 0.09 g/kg for 7 days, beagle No. 6, read-out: AUC0–24 h): 17600 ng·h/mL
- AUC(0-inf) ([2]; male, iv, 0.5 mL/kg, TRQI 0.5 mL/kg for 7 days, beagle No. 1): 75900 ng·h/mL
- AUC(0-t) ([2]; male, iv, 0.5 mL/kg, TRQI 0.5 mL/kg for 7 days, beagle No. 1, read-out: AUC0–24 h): 72400 ng·h/mL
- AUC(0-inf) ([2]; male, iv, 0.5 mL/kg, TRQI 0.5 mL/kg for 7 days, beagle No. 2): 1860 ng·h/mL
- AUC(0-t) ([2]; male, iv, 0.5 mL/kg, TRQI 0.5 mL/kg for 7 days, beagle No. 2, read-out: AUC0–24 h): 1720 ng·h/mL
- AUC(0-inf) ([2]; male, iv, 0.5 mL/kg, TRQI 0.5 mL/kg for 7 days, beagle No. 3): 14600 ng·h/mL
- AUC(0-t) ([2]; male, iv, 0.5 mL/kg, TRQI 0.5 mL/kg for 7 days, beagle No. 3, read-out: AUC0–24 h): 14500 ng·h/mL
- AUC(0-inf) ([2]; male, po, 0.09 g/kg, TRQC 0.09 g/kg for 7 days, beagle No. 1): 2940 ng·h/mL
- AUC(0-t) ([2]; male, po, 0.09 g/kg, TRQC 0.09 g/kg for 7 days, beagle No. 1, read-out: AUC0–24 h): 2760 ng·h/mL
- AUC(0-inf) ([2]; male, po, 0.09 g/kg, TRQC 0.09 g/kg for 7 days, beagle No. 2): 24400 ng·h/mL
- AUC(0-t) ([2]; male, po, 0.09 g/kg, TRQC 0.09 g/kg for 7 days, beagle No. 2, read-out: AUC0–24 h): 23900 ng·h/mL
- AUC(0-inf) ([2]; male, po, 0.09 g/kg, TRQC 0.09 g/kg for 7 days, beagle No. 3): 7520 ng·h/mL
- AUC(0-t) ([2]; male, po, 0.09 g/kg, TRQC 0.09 g/kg for 7 days, beagle No. 3, read-out: AUC0–24 h): 7190 ng·h/mL
- time at which oral absorption reached a peak ([4]; TRQC, oral, dogs): ~5 h
- AUC(0-t) ([4]; both sexes, iv, 0.5 mL/kg, single TRQI 0.5 mL/kg, Mean): 4080 ng·h/mL
- Cmax [4, 10]: 2750 ng/mL
- Tmax [4, 10]: 0.08 h
- half-life [4, 10]: 27.7 h
- AUC(0-t) ([4]; both sexes, po, 0.09 g/kg, single TRQCs 0.09 g/kg, Mean): 4400 ng·h/mL
- Cmax [4, 11]: 1330 ng/mL
- Tmax [4, 11]: 5.94 h
- half-life [4, 11]: 10.4 h
- AUC(0-t) ([4]; female, iv, 0.5 mL/kg, single TRQI 0.5 mL/kg, beagle No 4): 898 ng·h/mL
- AUC(0-t) ([4]; female, iv, 0.5 mL/kg, single TRQI 0.5 mL/kg, beagle No 5): 1160 ng·h/mL
- AUC(0-t) ([4]; female, iv, 0.5 mL/kg, single TRQI 0.5 mL/kg, beagle No 6): 992 ng·h/mL
- AUC(0-t) ([4]; female, po, 0.09 g/kg, single TRQCs 0.09 g/kg, beagle No 4): 11300 ng·h/mL
- AUC(0-t) ([4]; female, po, 0.09 g/kg, single TRQCs 0.09 g/kg, beagle No 5): 1880 ng·h/mL
- AUC(0-t) ([4]; female, po, 0.09 g/kg, single TRQCs 0.09 g/kg, beagle No 6): 3700 ng·h/mL
- AUC(0-t) ([4]; male, iv, 0.5 mL/kg, single TRQI 0.5 mL/kg, beagle No 1): 18200 ng·h/mL
- AUC(0-t) ([4]; male, iv, 0.5 mL/kg, single TRQI 0.5 mL/kg, beagle No 2): 1100 ng·h/mL
- AUC(0-t) ([4]; male, iv, 0.5 mL/kg, single TRQI 0.5 mL/kg, beagle No 3): 2120 ng·h/mL
- AUC(0-t) ([4]; male, po, 0.09 g/kg, single TRQCs 0.09 g/kg, beagle No 1): 1700 ng·h/mL
- AUC(0-t) ([4]; male, po, 0.09 g/kg, single TRQCs 0.09 g/kg, beagle No 2): 3190 ng·h/mL
- AUC(0-t) ([4]; male, po, 0.09 g/kg, single TRQCs 0.09 g/kg, beagle No 3): 4590 ng·h/mL
SMILES: C[C@H](CCC(=O)O)[C@H]1CC[C@H]2[C@@H]3[C@@H](O)C[C@@H]4C[C@H](O)CC[C@]4(C)[C@H]3CC[C@]12C [Ursodeoxycholic acid, ursodeoxycholic acid]
- t1/2 ([3]; Hu's study): 0.933 h
- t1/2 ([3]; another study): 0.233 h
